This note sets out measurements from patent publication US10980889B1 (Revolution Medicines, Inc., priority 2018, dated 2021).

Bounds are passed on as bounds.

The subject of one test is P-4E-BP1 (T37/46). The experiment in a line: Cell based AlphaLISA assay, inhibition of P-4E-BP1 (T37/46) in MDA-MB-468 cells (mTORC1 substrate). The settings on record: AlphaLisa, two to four hours at 37° C.; for IC50: Homo sapiens, 4 h, read-out: pIC50 for Inhibition of mTORC1 and mTORC2 Substrate Phosphorylation P-4E-BP1-(T37/46) (converted). Here is the method:
(§1) Cell Based AlphaLISA Assays For Determining IC50 For Inhibition of P-Akt (S473), P-4E-BP1(T37/46), and P-P70S6K (T389) in MDA-MB-468 Cells
(§2) mTOR Kinase Cellular Assay
(§3) To measure functional activity of mTORC1 and mTORC2 in cells the phosphorylation of 4EBPT (Thr37/46) and P70S6K (Thr389), and AKT1/2/3 (Ser473) was monitored using AlphaLisa SureFire Ultra Kits (Perkin Elmer). […] Incubations were terminated by removal of the assay buffer and addition of lysis buffer provided with the assay kit. Samples were processed according to the manufacturer's instructions. The Alpha signal from the respective phosphoproteinswas measured in duplicate using a microplate reader (Envision, Perkin-Elmer or Spectramax M5, Molecular Devices). Inhibitor concentration response curves were analyzed using normalized IC50 regression curve filling with control based normalization.

The next test deals with P-Akt (S473). The experiment in a line: Cell based AlphaLISA assay, inhibition of P-Akt (S473) in MDA-MB-468 cells (mTORC2 substrate). The note with it: AlphaLisa, two to four hours at 37° C.; for IC50: Homo sapiens, 4 h, read-out: pIC50 for Inhibition of mTORC1 and mTORC2 Substrate Phosphorylation p-AKT1/2/3-(S473) (converted). Here is the method: as §1, §2, §3
A further test concerns P-P70S6K (T389). As to the kind of experiment: Cell based AlphaLISA assay, inhibition of P-P70S6K (T389) in MDA-MB-468 cells (mTORC1 substrate). The settings on record: AlphaLisa, two to four hours at 37° C.; for IC50: Homo sapiens, 4 h, read-out: pIC50 for Inhibition of mTORC1 and mTORC2 Substrate Phosphorylation p-P70S6K-(T389) (converted). Here is the method:
as §1, §2, §3

Regarding `CO[C@H]1C[C@@H]2CC[C@@H](C)[C@@](O)(O2)C(=O)C(=O)N2CCCC[C@H]2C(=O)O[C@H]([C@H](C)C[C@@H]2CC[C@@H](OC(=O)NCc3cnc(N4CCN(CCOCCOCCOCCOCCC(=O)N5CCc6cc(Cn7nc(-c8ccc9oc(N)nc9c8)c8c(N)ncnc87)ccc6C5)CC4)nc3)[C@H](OC)C2)C[C@@H](OC)[C@H](C)/C=C(\C)[C@@H](O)[C@@H](OC)C(=O)[C@H](C)C[C@H](C)/C=C/C=C/C=C/1C` [Example 89], the IC50 in the test with P-4E-BP1 (T37/46) is less than 3.16 nM; in the test with P-Akt (S473) it was greater than 1000 nM; in the test on P-P70S6K (T389), less than 1 nM.
As for `CO[C@H]1C[C@@H]2CC[C@@H](C)[C@@](O)(O2)C(=O)C(=O)N2CCCC[C@H]2C(=O)O[C@H]([C@H](C)C[C@@H]2CC[C@@H](OC(=O)NCc3cnc(N4CCN(C(=O)CN(C)CC(=O)NCCOCCOCCC(=O)N5CCc6cc(Cn7nc(-c8ccc9oc(N)nc9c8)c8c(N)ncnc87)ccc6C5)CC4)nc3)[C@H](OC)C2)C[C@@H](OC)[C@H](C)/C=C(\C)[C@@H](O)[C@@H](OC)C(=O)[C@H](C)C[C@H](C)/C=C/C=C/C=C/1C` [Example 103], the “pIC50 for Inhibition of mTORC1 and mTORC2 Substrate Phosphorylation P-4E-BP1-(T37/46)” value with P-4E-BP1 (T37/46) is reported as “− (<6)”. Moreover, in the test on P-Akt (S473), the “pIC50 for Inhibition of mTORC1 and mTORC2 Substrate Phosphorylation p-AKT1/2/3-(S473)” value was “− (<6)”. For the same compound, the “pIC50 for Inhibition of mTORC1 and mTORC2 Substrate Phosphorylation p-P70S6K-(T389)” value in the test with P-P70S6K (T389) is “+++ (≥9)”.
Regarding `CO[C@H]1C[C@@H]2CC[C@@H](C)[C@@](O)(O2)C(=O)C(=O)N2CCCC[C@H]2C(=O)O[C@H]([C@H](C)C[C@@H]2CC[C@@H](OC(=O)NCc3cnc(N4CCN(C(=O)CCOCCN5CCN(c6ncc(C(=O)N7CCc8cc(Cn9nc(-c%10ccc%11oc(N)nc%11c%10)c%10c(N)ncnc%109)ccc8C7)cn6)CC5)CC4)nc3)[C@H](OC)C2)C[C@@H](OC)[C@H](C)/C=C(\C)[C@@H](O)[C@@H](OC)C(=O)[C@H](C)C[C@H](C)/C=C/C=C/C=C/1C` [Example 114], the IC50 was less than 3.16 nM in the test with P-4E-BP1 (T37/46), greater than 1000 nM with P-Akt (S473) and less than 1 nM in the test with P-P70S6K (T389).
Taken in the same sequence, the figures for `CO[C@H]1C[C@@H]2CC[C@@H](C)[C@@](O)(O2)C(=O)C(=O)N2CCCC[C@H]2C(=O)O[C@H]([C@H](C)C[C@@H]2CC[C@@H](OC(=O)NCc3cnc(N4CCN(C(=O)CCOCCN5CCN(c6ncc(C(=O)NCCS(=O)(=O)c7ccc(C(=O)N8CCOc9ccc(-c%10ccc(N)nc%10)cc9C8)c(C)c7F)cn6)CC5)CC4)nc3)[C@H](OC)C2)C[C@@H](O)[C@H](C)/C=C(\C)[C@@H](O)[C@@H](OC)C(=O)[C@H](C)C[C@H](C)/C=C/C=C/C=C/1C` [Example 122] were less than 3.16 nM, 3.16 to 31.6 nM and less than 1 nM.
Taken in the same sequence, the figures for `CO[C@H]1C[C@@H]2CC[C@@H](C)[C@@](O)(O2)C(=O)C(=O)N2CCCC[C@H]2C(=O)O[C@H]([C@H](C)C[C@@H]2CC[C@@H](OC(=O)NCCOCCOCCOCCOCCOCCOCCOCCOCCC(=O)NCCS(=O)(=O)c3ccc(C(=O)N4CCOc5ccc(-c6ccc(N)nc6)cc5C4)c(C)c3)[C@H](OC)C2)C[C@@H](O)[C@H](C)/C=C(\C)[C@@H](O)[C@@H](OC)C(=O)[C@H](C)C[C@H](C)/C=C/C=C/C=C/1C` [Example 41] were less than 3.16 nM, greater than 1000 nM and less than 1 nM.
On to `CO[C@H]1C[C@@H]2CC[C@@H](C)[C@@](O)(O2)C(=O)C(=O)N2CCCC[C@H]2C(=O)O[C@H]([C@H](C)C[C@@H]2CC[C@@H](OC(=O)NCCOCCOCCOCCOCCOCCOCCOCCOCCC(=O)NCc3ccc(Cn4nc(-c5ccc6oc(N)nc6c5)c5c(N)ncnc54)cc3)[C@H](OC)C2)CC(=O)[C@H](C)/C=C(\C)[C@@H](O)[C@@H](OC)C(=O)[C@H](C)C[C@H](C)/C=C/C=C/C=C/1C` [Example 35], for which the IC50 with P-4E-BP1 (T37/46) was less than 3.16 nM; in the test on P-Akt (S473) it was 3.16 to 31.6 nM; with P-P70S6K (T389), less than 1 nM.
